Legend:
[1] = biological target: Pancreatic polypeptide receptor 1 (Sus scrofa, UniProt O97505)
[2] = biological target: Neuropeptide Y receptor type 4 (Homo sapiens, UniProt P50391)
[3] = biological target: Neuropeptide Y receptor type 4 (Rattus norvegicus, UniProt Q63447)
Neuropeptide Y receptor type 4 (Rattus norvegicus, UniProt Q63447), sequence (Q63447 whole entry): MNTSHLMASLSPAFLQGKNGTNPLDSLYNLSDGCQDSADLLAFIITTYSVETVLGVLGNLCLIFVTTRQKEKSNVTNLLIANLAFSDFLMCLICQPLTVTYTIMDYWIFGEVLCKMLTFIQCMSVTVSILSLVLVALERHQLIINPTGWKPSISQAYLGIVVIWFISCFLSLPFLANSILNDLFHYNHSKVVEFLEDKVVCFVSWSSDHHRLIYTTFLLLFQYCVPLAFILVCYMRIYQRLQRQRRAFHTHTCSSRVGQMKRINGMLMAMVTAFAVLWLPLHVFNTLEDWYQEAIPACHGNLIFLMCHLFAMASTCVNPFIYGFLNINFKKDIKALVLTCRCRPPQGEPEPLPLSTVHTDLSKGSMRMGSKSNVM

Pancreatic polypeptide receptor 1, sequence (O97505 whole entry): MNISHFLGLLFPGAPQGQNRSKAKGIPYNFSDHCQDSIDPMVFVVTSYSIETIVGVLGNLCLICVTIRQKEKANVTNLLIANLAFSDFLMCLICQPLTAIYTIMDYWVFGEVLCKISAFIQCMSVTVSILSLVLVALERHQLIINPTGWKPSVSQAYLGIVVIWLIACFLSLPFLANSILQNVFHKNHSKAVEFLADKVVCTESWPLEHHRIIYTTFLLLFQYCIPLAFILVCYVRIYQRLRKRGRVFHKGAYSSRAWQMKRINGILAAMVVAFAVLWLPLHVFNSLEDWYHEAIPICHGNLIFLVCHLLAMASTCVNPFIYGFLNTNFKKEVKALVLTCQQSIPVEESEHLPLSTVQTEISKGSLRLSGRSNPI
Neuropeptide Y receptor type 4 (Homo sapiens, UniProt P50391), sequence (P50391 whole entry C240R): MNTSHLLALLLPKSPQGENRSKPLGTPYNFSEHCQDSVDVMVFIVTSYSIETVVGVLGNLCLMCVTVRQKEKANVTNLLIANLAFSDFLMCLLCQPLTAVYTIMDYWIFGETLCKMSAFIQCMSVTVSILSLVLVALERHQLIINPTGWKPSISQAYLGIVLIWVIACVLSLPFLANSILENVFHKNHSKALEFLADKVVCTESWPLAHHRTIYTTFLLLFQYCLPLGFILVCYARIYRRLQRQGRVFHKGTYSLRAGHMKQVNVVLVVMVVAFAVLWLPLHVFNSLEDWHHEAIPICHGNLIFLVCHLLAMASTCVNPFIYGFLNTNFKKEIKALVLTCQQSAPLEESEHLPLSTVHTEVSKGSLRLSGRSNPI

Row | Compound | Ki [1] [nM] | Ki [2] [nM] | Ki [3] [nM]
1 | CC[C@H](C)[C@H](NC(=O)[C@H](Cc1ccc(O)cc1)NC(=O)[C@H](CCCNC(=N)N)NC(=O)[C@H](CCCNC(=N)N)NC(=O)[C@H](CC(C)C)NC(=O)[C@H](CC(=O)O)NC(=O)[C@H](C)NC(=O)[C@H](C)NC(=O)[C@H](Cc1ccc(O)cc1)NC(=O)[C@H](CCC(N)=O)NC(=O)[C@H](C)NC(=O)[C@H](CCSC)NC(=O)[C@H](CCC(N)=O)NC(=O)[C@H](CCC(=O)O)NC(=O)[C@@H]1CCCN1C(=O)[C@@H](NC(=O)[C@H](C)NC(=O)[C@H](CC(N)=O)NC(=O)[C@H](CC(=O)O)NC(=O)CNC(=O)[C@@H]1CCCN1C(=O)[C@H](Cc1ccc(O)cc1)NC(=O)[C@@H](NC(=O)[C@@H]1CCCN1C(=O)[C@H](CCC(=O)O)NC(=O)[C@H](CC(C)C)NC(=O)[C@@H]1CCCN1C(=O)[C@H](C)N)C(C)C)[C@@H](C)O)C(=O)N[C@@H](CC(N)=O)C(=O)N[C@@H](CCSC)C(=O)N[C@@H](CC(C)C)C(=O)N[C@H](C(=O)N[C@@H](CCCNC(=N)N)C(=O)N1CCC[C@H]1C(=O)N[C@@H](CCCNC(=N)N)C(=O)N[C@@H](Cc1ccc(O)cc1)C(N)=O)[C@@H](C)O [CAS_59763-91-6] | 0.031 |  | 
2 | CC[C@H](C)[C@H](NC(=O)[C@H](Cc1ccc(O)cc1)NC(=O)[C@H](CCCNC(=N)N)NC(=O)[C@H](CCCNC(=N)N)NC(=O)[C@H](CC(C)C)NC(=O)[C@H](CCC(N)=O)NC(=O)[C@@H](NC(=O)[C@H](CCC(=O)O)NC(=O)[C@H](Cc1ccc(O)cc1)NC(=O)[C@H](CCC(N)=O)NC(=O)[C@H](C)NC(=O)[C@H](CCCNC(=N)N)NC(=O)[C@H](CCC(N)=O)NC(=O)[C@H](CCC(=O)O)NC(=O)[C@H](Cc1c[nH]cn1)NC(=O)[C@@H](NC(=O)[C@H](C)NC(=O)[C@H](Cc1ccc(O)cc1)NC(=O)[C@H](CC(=O)O)NC(=O)CNC(=O)[C@@H]1CCCN1C(=O)[C@H](Cc1ccc(O)cc1)NC(=O)[C@H](CCSC)NC(=O)[C@@H]1CCCN1C(=O)[C@H](CCC(=O)O)NC(=O)[C@H](CC(C)C)NC(=O)[C@@H]1CCCN1C(=O)[C@H](C)N)[C@@H](C)O)[C@@H](C)O)C(=O)N[C@@H](CC(N)=O)C(=O)N[C@H](C(=O)N[C@@H](CC(C)C)C(=O)N[C@H](C(=O)N[C@@H](CCCNC(=N)N)C(=O)N1CCC[C@H]1C(=O)N[C@@H](CCCNC(=N)N)C(=O)N[C@@H](Cc1ccc(O)cc1)C(N)=O)[C@@H](C)O)[C@@H](C)O [NSC_41735] | 0.044 | 0.071 | 0.0027
3 | H-APLEPEYPGDNATPEQMAQYAAELRRYINMLTRPRY-NH2 [CAS_59763-91-6] | 0.013 | 0.031 | 0.006

Reference: BindingDB's records for doi:10.1016/s0167-0115(98)00050-0 (Uppsala University, 1998)
